Results on 25 compounds are retold here after US12043602B2, “Fendiline derivatives” (The Board of Regents of the University of Texas System, priority 2019, dated 2024).

Each structure is given as a SMILES string.

The subject of data set [1] is MDCK cells co-expressing GFP-K-RASG12V and mCherry-CAAX. Put plainly: Cytotoxicity in mislocalization screen (death of all cells in well). The following applies: drug caused death of all cells in well at 30 μM.
Data set [2] concerns the target mGFP-K-RASG12V (Homo sapiens (Human), UniProt P01116, G12V). Put plainly: K-Ras mislocalization assay (confocal microscopy, Manders coefficient). The format is cell-based. The following applies: for IC50 / Emax: MDCK cells; for IC50: 48 h treatment, read-out: IC50 (μM), KRASG12V mislocalization; for Emax: maximal effect, Manders coefficient, 48 h; for fold loss of potency to mislocalize KRAS: in comparison with 7. Also noted: key to Emax: Manders coefficient: fraction of mCherry-CAAX co-localizing with GFP-K-Ras. As to the method:
Madine Darby Canine Kidney epithelial cells (MDCK) stably co-expressing mGFP-tagged full length oncogenic mutant K-Ras (GFP—K-RASG12V) or mGFP-LactC2 (peptide probe for phosphatidylserine) and mCherry-tagged to the amino acids 179-189 of H-RasC181S, C184S (mCherry-CAAX, localizes primarily to endomembranes) were grown in DMEM-high glucose/sodium pyruvate/10% FBS. The medium was supplemented with 1× Penicillin/Streptomycin for fluorescence microscopy assays, to avoid any microbial contamination from the test compounds added. KLE and Hec50 cells were maintained in DMEM-F-12 medium supplemented with 10% FBS. Hec-1A and Hec-1B cells were grown in McCoy's 5a medium supplemented with 10% FBS. ESS-1 cells were grown in RPMI 1640 medium supplemented with 20% FBS. MPanc96 cells were grown in DMEM supplemented with 10% FBS, MiaPaCa-2 cells in DMEM supplemented with 10% FBS and 2.5% horse serum and all other cell lines were grown in RPMI 1640 supplemented with 10% FBS. All cancer cell media were supplemented with ×Penicillin/Streptomycin. All cell lines were grown at 37° C. with 5% CO2.
MDCK co-expressing GFP—K-RASG12V or LactC2 and mCherry-CAAX were grown on coverslips, treated with 0.1% vehicle (DMSO) or various concentrations of drugs for 48 h, and fixed with 4% paraformaldehyde. The coverslips were mounted in mowiol and imaged by confocal microscopy (Nikon A1) using a 60× objective. Using ImageJ software v1.42q, images were converted to 8-bit, and a threshold to a control pixel of each image was set. As a measure of K-Ras/LactC2 mislocalization, the fraction of mCherry-CAAX co-localizing with mGFP-K-RASG12V was calculated using a Manders coefficient plugin downloaded from Wright Cell Image Facility. The fraction of mCherry-CAAX co-localizing with mGFP-RASG12V (Mander's coefficient) is proportional to K-Ras mislocalization.

For the compound `OC[C@H](c1ccccc1)N(CC=C(c1ccccc1)c1ccccc1)CC=C(c1ccccc1)c1ccccc1` [AVA72, reference compound], the “Cytotoxic at 30 μM” value in data set [1] was “No”. Besides, in data set [2], the IC50 turned out to be 0.17 µM and the Emax was determined as 0.764.
The like results for `C=CCN(CC=C(c1ccccc1)c1ccccc1)[C@H](C)c1ccc(OC)cc1` [NY0217, (R)-N-allyl-N-(1-(4-methoxyphenyl)ethyl)-3,3-diphenylprop-2-en-1-amine] were, in that order, “No”, 13 µM and 0.47.
With `COc1ccc([C@@H](C)N(C)CC=C(c2ccccc2)c2ccccc2)cc1` [NY0218, (R)-N-(1-(4-methoxyphenyl)ethyl)-N-methyl-3,3-diphenylprop-2-en-1-amine], in data set [1], the “Cytotoxic at 30 μM” value is “No”. In addition, in data set [2], the IC50 was 3.3 µM, the “fold loss of potency to mislocalize KRAS” value came to 7 fold and the Emax was 0.75 ± 0.01.
Take `COc1ccc(CCN(CC=C(c2ccccc2)c2ccccc2)CC=C(c2ccccc2)c2ccccc2)cc1` [NY0220, N-(3,3-diphenylallyl)-N-(4-methoxyphenethyl)-3,3-diphenylprop-2-en-1-amine]: the “Cytotoxic at 30 μM” value in data set [1] is “No”. In data set [2], the IC50 was determined as 3.65 µM and the Emax is on record as 0.605.
On the same counts, the results for `C(CN1CCc2ccccc2C1)=C(c1ccccc1)c1ccccc1` [NY0221, 2-(3,3-diphenylallyl)-1,2,3,4-tetrahydroisoquinoline] are “No”, 0.65 µM and 0.585.
As for `COc1ccc([C@@H](C)N(CC=C(c2ccccc2)c2ccccc2)C(C)=O)cc1` [NY0222, (R)-N-(3,3-diphenylallyl)-N-(1-(4-methoxyphenyl)ethyl)acetamide], the “Cytotoxic at 30 μM” value in data set [1] is recorded as “Yes”. Moreover, in data set [2], the IC50 is 0.25 µM and the Emax is 0.587.
Consider `COc1ccc([C@@H](C)N(CC=C(c2ccccc2)c2ccccc2)S(C)(=O)=O)cc1` [NY0223, (R)-N-(3,3-diphenylallyl)-N-(1-(4-methoxyphenyl)ethyl)methanesulfonamide], for which, in data set [1], the “Cytotoxic at 30 μM” value is “No”. Further, in data set [2], the IC50 came to 8.45 µM and the Emax stood at 0.785.
For `COc1ccc(NC(=O)N(CC=C(c2ccccc2)c2ccccc2)[C@H](C)c2ccc(OC)cc2)cc1` [NY0224, (R)-1-(3,3-diphenylallyl)-3-(4-methoxyphenyl)-1-(1-(4-methoxyphenyl)ethyl)urea], the “Cytotoxic at 30 μM” value in data set [1] is “No”. Moreover, in data set [2], the half-maximal inhibitory concentration (IC50) came to 0.64 µM and the Emax is given as 0.622.
On the same counts, the results for `COc1ccc([C@@H](C)N(CC=C(c2ccccc2)c2ccccc2)C(=O)Oc2ccccc2)cc1` [NY0225, (R)-phenyl (3,3-diphenylallyl)(1-(4-methoxyphenyl)ethyl)carbamate] are “Yes”, 0.43 µM and 0.626.
Take `COC(=O)CN(CC=C(c1ccccc1)c1ccccc1)[C@H](C)c1ccc(OC)cc1` [NY0228, (R)-methyl 2-((3,3-diphenylallyl)(1-(4-methoxyphenyl)ethyl)amino)acetate]: in data set [1], the “Cytotoxic at 30 μM” value is “No”. In data set [2], the Emax turned out to be 0.705.
As for `COc1ccc([C@@H](C)N(CC=C(c2ccccc2)c2ccccc2)CC(=O)O)cc1` [NY0229, (R)-2-((3,3-diphenylallyl)(1-(4-methoxyphenyl)ethyl)amino)acetic acid], the “Cytotoxic at 30 μM” value in data set [1] is listed as “No”. Also, in data set [2], the IC50 was 6.39 µM and the Emax was determined as 0.522.
The like results for `COc1ccc([C@@H](C)N(CC=C(c2ccccc2)c2ccccc2)CC(=O)N2CCN(C)CC2)cc1` [NY0232, (R)-2-((3,3-diphenylallyl)(1-(4-methoxyphenyl)ethyl)amino)-1-(4-methylpiperazin-1-yl)ethanone] were, in that order, “No”, 1.1 µM and 0.73 ± 0.02.
The like results for `COc1ccc([C@@H](C)N(CC=C(c2ccccc2)c2ccccc2)CC(=O)N2CCc3ccccc3C2)cc1` [NY0233, (R)-1-(3,4-dihydroisoquinolin-2(1H)-yl)-2-((3,3-diphenylallyl)(1-(4-methoxyphenyl)ethyl)amino)ethanone] were, in that order, “No”, 3.56 µM and 0.522.
On the same counts, the results for `C#CCN(CC=C(c1ccccc1)c1ccccc1)[C@H](C)c1ccc(OC)cc1` [NY0234, (R)-N-(1-(4-methoxyphenyl)ethyl)-3,3-diphenyl-N-(prop-2-yn-1-yl)prop-2-en-1-amine] are “No”, 21.9 µM and 0.703.
Take `C=CC(=O)N(CC=C(c1ccccc1)c1ccccc1)[C@H](C)c1ccc(OC)cc1` [NY0235, (R)-N-(3,3-diphenylallyl)-N-(1-(4-methoxyphenyl)ethyl)acrylamide]: the “Cytotoxic at 30 μM” value in data set [1] is “No”. Moreover, in data set [2], the IC50 amounted to 1.21 µM and the Emax is recorded as 0.59.
On the same counts, the results for `C(CN1CCCc2ccccc21)=C(c1ccccc1)c1ccccc1` [NY0237, 1-(3,3-diphenylallyl)-1,2,3,4-tetrahydroquinoline] are “No”, 12.2 µM and 0.79.
Regarding `COc1ccc([C@@H](C)N(CC=C(c2ccccc2)c2ccccc2)CCO)cc1` [NY0241, (R)-2-((3,3-diphenylallyl)(1-(4-methoxyphenyl)ethyl)amino)ethanol], the “Cytotoxic at 30 μM” value in data set [1] is recorded as “No”; in data set [1] (listed as 11e) it was “did not show any cytotoxic”. For the same compound, the IC50 in data set [2] worked out at 0.2 µM. The figures for the Emax in data set [2] and in data set [2] (listed as 11e) were 0.72 ± 0.03 and 0.72, respectively. Besides, in data set [2] (versus hit 7), the “fold increase in KRAS mislocalization potency” value was 2.5 fold.
`Fc1ccc2c(c1)CCCN2CC=C(c1ccccc1)c1ccccc1` [NY293, 1-(3,3-diphenylallyl)-6-fluoro-1,2,3,4-tetrahydroquinoline]: in data set [1], the “Cytotoxic at 30 μM” value was “No”. Besides, in data set [2], the IC50 stood at 2.3 µM and the Emax was determined as 0.910.
The like results for `CC1CCc2ccccc2N1CC=C(c1ccccc1)c1ccccc1` (centres unmarked) [NY304, 1-(3,3-diphenylallyl)-2-methyl-1,2,3,4-tetrahydroquinoline] were, in that order, “No”, 2.95 µM and 0.751.
On the same counts, the results for `C(CN1CCC(c2ccccc2)CC1)=C(c1ccccc1)c1ccccc1` [NY306, 1-(3,3-diphenylallyl)-4-phenylpiperidine] are “No”, 3.95 µM and 0.893.
`C(CN1CCN(c2ccccc2)CC1)=C(c1ccccc1)c1ccccc1` [NY307, 1-(3,3-diphenylallyl)-4-phenylpiperazine]: the “Cytotoxic at 30 μM” value in data set [1] is given as “No”. In addition, in data set [2], the IC50 turned out to be 4.2 µM and the Emax is reported as 0.858.
On the same counts, the results for `COc1ccc([C@@H](C)N(CC=C(c2ccccc2)c2ccccc2)C(=O)C(C)F)cc1` (stereo partly drawn) [NY314, N-(3,3-diphenylallyl)-2-fluoro-N-((R)-1-(4-methoxyphenyl)ethyl)propanamide] are “No”, 1.69 µM and 0.842.
Consider `COc1ccc([C@@H](C)N(CC=C(c2ccccc2)c2ccccc2)CCF)cc1` [NY315, (R)-N-(2-fluoroethyl)-N-(1-(4-methoxyphenyl)ethyl)-3,3-diphenylprop-2-en-1-amine], for which the “Cytotoxic at 30 μM” value in data set [1] is given as “No”. In data set [2], the IC50 is 10.1 µM, the “fold loss of potency to mislocalize KRAS” value is 20 fold and the Emax came to 0.52 ± 0.04.
As for `COc1ccc([C@@H](C)N(CC=C(c2ccccc2)c2ccccc2)CCN2CCOCC2)cc1` [NY316, (R)-N-(1-(4-methoxyphenyl)ethyl)-N-(2-morpholinoethyl)-3,3-diphenylprop-2-en-1-amine], the “Cytotoxic at 30 μM” value in data set [1] is on record as “No”. Besides, in data set [2], the concentration for half-maximal inhibition (IC50) stood at 4.4 µM and the Emax was found to be 0.86 ± 0.02.
Regarding `COc1ccc([C@@H](C)N(CC=C(c2ccccc2)c2ccccc2)CCN2CCNC(=O)C2)cc1` [NY325, (R)-4-(2-((3,3-diphenylallyl)(1-(4-methoxyphenyl)ethyl)amino)ethyl) piperazin-2-one], in data set [1], the “Cytotoxic at 30 μM” value is listed as “No”. In data set [2], the IC50 came to 7.7 µM and the Emax was determined as 0.81 ± 0.02. In addition, the “fold potency loss compared to 12e” value in data set [2] (versus 12e) stood at 6 fold.

For orientation: IC50 means the concentration that gives 50% inhibition.
